# Laboratory results from US7488740B2, “Substituted quinolin-4-ylamine analogues” (Neurogen Corporation, priority 2003, dated 2009).
# Biological target: T1, human capsaicin receptor (Homo sapiens, UniProt Q8NER1)
# T1 construct: A cDNA encoding full length human capsaicin receptor recited in U.S. Pat. No. 6,482,611 was subcloned in the plasmid pBK-CMV; expressed in transfected cells
# Assay: Calcium mobilization assay (Example 6)
# Format: cell-based
# Conditions: concentration required to provide a 50% decrease in the fluorescence response of cells exposed to one IC50 of capsaicin
# In short: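 HEK293 clonal lines stably expressing full-length human capsaicin receptor, Fluo-3 AM loaded in KRH buffer pH 7.4. Compounds (final 1-5 μM) preincubated 0.5-6 h at room temperature in the dark, then capsaicin added at its predetermined IC50 concentration. FLIPR calcium signal at 30-60 s; IC50 = antagonist concentration giving 50% decrease.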
# T1 sequence (Q8NER1 whole entry): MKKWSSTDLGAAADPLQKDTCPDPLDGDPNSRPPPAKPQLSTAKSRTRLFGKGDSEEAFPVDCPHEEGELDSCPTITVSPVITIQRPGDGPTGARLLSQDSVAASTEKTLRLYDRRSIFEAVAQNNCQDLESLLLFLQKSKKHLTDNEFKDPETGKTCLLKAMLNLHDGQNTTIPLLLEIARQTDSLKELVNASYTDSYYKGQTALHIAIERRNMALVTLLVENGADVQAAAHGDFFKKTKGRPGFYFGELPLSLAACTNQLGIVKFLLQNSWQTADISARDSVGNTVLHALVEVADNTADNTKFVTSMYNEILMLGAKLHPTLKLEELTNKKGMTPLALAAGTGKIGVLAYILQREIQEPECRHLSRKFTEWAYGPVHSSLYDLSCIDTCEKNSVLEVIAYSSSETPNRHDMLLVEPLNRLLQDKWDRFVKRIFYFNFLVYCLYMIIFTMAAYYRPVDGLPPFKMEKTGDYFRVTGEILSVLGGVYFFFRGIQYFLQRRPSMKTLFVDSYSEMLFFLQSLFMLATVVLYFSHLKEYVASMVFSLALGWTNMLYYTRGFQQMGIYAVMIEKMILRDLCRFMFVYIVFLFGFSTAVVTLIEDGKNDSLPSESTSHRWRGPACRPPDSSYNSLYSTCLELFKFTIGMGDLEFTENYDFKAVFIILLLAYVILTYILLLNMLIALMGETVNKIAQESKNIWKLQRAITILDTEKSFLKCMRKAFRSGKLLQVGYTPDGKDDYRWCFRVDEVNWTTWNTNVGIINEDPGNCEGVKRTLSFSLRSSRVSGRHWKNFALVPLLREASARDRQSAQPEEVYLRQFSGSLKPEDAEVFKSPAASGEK
row,IC50 [nM],Compound
1,≤ 1000,"CN(CC(=O)O)Cc1cc(Nc2ccc(C(F)(F)F)cc2)c2ccc(-c3ncccc3C(F)(F)F)nc2n1 [Compound 76, N-methyl-N-({4-{[4-(trifluoromethyl)phenyl]amino}-7-[3-(trifluoromethyl)pyridin-2-yl]-1,8-naphthyridin-2-yl}methyl)glycine]"
2,≤ 1000,"NC(=O)c1cc(Nc2ccc(C(F)(F)F)cn2)c2ccc(-c3ncccc3C(F)(F)F)nc2n1 [Compound 126, 7-[3-(trifluoromethyl)pyridin-2-yl]-4-{[5-(trifluoromethyl)pyridin-2-yl]amino}-1,8-naphthyridine-2-carboxamide]"
3,≤ 1000,"CC(C)CCNc1cc(Nc2ccc(C(C)(C)C)cc2)c2ccc(-c3ncccc3C(F)(F)F)cc2n1 [Compound 29, N~4~-(4-tert-butylphenyl)-N~2~-isopentyl-7-[3-(trifluoromethyl)pyridin-2-yl]quinoline-2,4-diamine]"
4,≤ 1000,"FC(F)(F)c1ccc(Nc2cc(Cl)nc3cc(-c4ncccc4C(F)(F)F)ccc23)cc1 [Compound 20, 2-chloro-N-[4-(trifluoromethyl)phenyl]-7-[3-(trifluoromethyl)pyridin-2-yl]quinolin-4-amine]"
5,≤ 1000,"CC(C)(C)c1ccc(Nc2cc(Cl)nc3cc(-c4ncccc4C(F)(F)F)ccc23)cc1 [Compound 22, N-(4-tert-butylphenyl)-2-chloro-7-[3-(trifluoromethyl)pyridin-2-yl]quinolin-4-amine]"
6,≤ 1000,"Oc1cc(Nc2ccc(C(F)(F)F)cc2)c2ccc(-c3ncccc3C(F)(F)F)nc2n1 [Compound 31, 4-{[4-(trifluoromethyl)phenyl]amino}-7-[3-(trifluoromethyl)pyridin-2-yl]-1,8-naphthyridin-2-ol]"
7,≤ 1000,"CC(O)COCc1cc(Nc2ccc(C(F)(F)F)cc2)c2ccc(-c3ncccc3C(F)(F)F)nc2n1 (stereo not drawn) [Compound 66, 1-({4-{[4-(trifluoromethyl)phenyl]amino}-7-[3-(trifluoromethyl)pyridin-2-yl]-1,8-naphthyridin-2-yl}methoxy)propan-2-ol]"
8,≤ 1000,"FC(F)(F)c1ccc(Nc2cc(Cl)nc3nc(-c4ncccc4C(F)(F)F)ccc23)cc1 [Compound 34, 2-chloro-N-[4-(trifluoromethyl)phenyl]-7-[3-(trifluoromethyl)pyridin-2-yl]-1,8-naphthyridin-4-amine]"
9,≤ 1000,"COCc1cc(Nc2ccc(S(=O)(=O)C(C)C)cc2)c2ccc(-c3ncccc3C(F)(F)F)nc2n1 [Compound 13, N-[4-(isopropylsulfonyl)phenyl]-2-(methoxymethyl)-7-[3-(trifluoromethyl)pyridin-2-yl]-1,8-naphthyridin-4-amine]"
10,≤ 1000,"FC(F)(F)c1ccc(Nc2cc(CN3CCCC3)nc3nc(-c4ncccc4C(F)(F)F)ccc23)nc1 [Compound 95, 2-(pyrolidin-1-ylmethyl)-7-[3-(trifluoromethyl)pyridin-2-yl]-N-[5-(trifluoromethyl)pyridin-2-yl]-1,8-naphthyridin-4-amine]"
11,≤ 1000,"COCc1cc(Nc2ccc(Cl)c(F)c2)c2ccc(-c3ncccc3C(F)(F)F)nc2n1 [Compound 10, N-(4-chloro-3-fluorophenyl)-2-(methoxymethyl)-7-[3-(trifluoromethyl)pyridin-2-yl]-1,8-naphthyridin-4-amine]"
12,≤ 1000,"CCCOCc1cc(Nc2ccc(C(F)(F)F)cc2)c2ccc(-c3ncccc3C(F)(F)F)nc2n1 [Compound 43, 2-(propoxymethyl)-N-[4-(trifluoromethyl)phenyl]-7-[3-(trifluoromethyl)pyridin-2-yl]-1,8-naphthyridin-4-amine]"
13,≤ 1000,"COCc1cc(Nc2ccc(F)cc2)c2ccc(-c3ncccc3C(F)(F)F)nc2n1 [Compound 9, N-(4-fluorophenyl)-2-(methoxymethyl)-7-[3-(trifluoromethyl)pyridin-2-yl]-1,8-naphthyridin-4-amine]"
14,≤ 1000,"FC(F)(F)c1ccc(Nc2ccnc3nc(-c4ncccc4C(F)(F)F)cnc23)nc1 [Compound 113, 3-[3-(trifluoromethyl)pyridin-2-yl]-N-[5-(trifluoromethyl)pyridin-2-yl]pyrido[2,3-b]pyrazin-8-amine]"
15,≤ 1000,"FC(F)(F)c1ccc(Nc2cc(C3CCC3)nc3nc(-c4ncccc4C(F)(F)F)ccc23)nc1 [Compound 98, 2-cyclobutyl-7-[3-(trifluoromethyl)pyridin-2-yl]-N-[5-(trifluoromethyl)pyridin-2-yl]-1,8-naphthyridin-4-amine]"
16,≤ 1000,"CN(C)Cc1cc(Nc2ccc(C(F)(F)F)cn2)c2ccc(-c3ncccc3C(F)(F)F)nc2n1 [Compound 89, 2-[(dimethylamino)methyl]-7-[3-(trifluoromethyl)pyridin-2-yl]-N-[5-(trifluoromethyl)pyridin-2-yl]-1,8-naphthyridin-4-amine]"
17,≤ 1000,"COC(C)c1cc(Nc2ccc(C(C)=O)cn2)c2ccc(-c3ncccc3C(F)(F)F)nc2n1 (stereo not drawn) [Compound 120, 1-[6-({2-(1-methoxyethyl)-7-[3-(trifluoromethyl)pyridin-2-yl]-1,8-naphthyridin-4-yl}amino)pyridin-3-yl]ethanone]"

# Continued, compound first:
row,Compound,IC50 [nM]
1,"Cc1ccc(Nc2cc(COCC(C)C)nc3nc(-c4ncccc4C(F)(F)F)ccc23)nc1 [Compound 83, 2-(isobutoxymethyl)-N-(5-methylpyridin-2-yl)-7-[3-(trifluoromethyl)pyridin-2-yl]-1,8-naphthyridin-4-amine]",≤ 1000
2,"COCc1cc(Nc2ccc3c(c2)NCCC3(C)C)c2ccc(-c3ncccc3C(F)(F)F)nc2n1 [Compound 16, N-(4,4-dimethyl-1,2,3,4-tetrahydroquinolin-7-yl)-2-(methoxymethyl)-7-[3-(trifluoromethyl)pyridin-2-yl]-1,8-naphthyridin-4-amine]",≤ 1000
3,"O=C1OCc2nc3nc(-c4ncccc4C(F)(F)F)ccc3c(Nc3ccc(C(F)(F)F)cc3)c21 [Compound 12, 5-{[4-(trifluoromethyl)phenyl]amino}-2-[3-(trifluoromethyl)pyridin-2-yl]furo[3,4-b]-1,8-naphthyridin-6(8H)-one]",≤ 1000
4,"COCc1cc(Nc2ccc(C(F)(F)F)cc2)c2ccc(-c3ncccc3Cl)nc2n1 [Compound 51, 7-(3-chloropyridin-2-yl)-2-(methoxymethyl)-N-[4-(trifluoromethyl)phenyl]-1,8-naphthyridin-4-amine]",≤ 1000
5,"FC(F)(F)c1ccc(Nc2ccnc3nc(-c4ncccc4Cl)ccc23)nc1 [Compound 136, 7-(3-chloropyridin-2-yl)-N-[5-(trifluoromethyl)pyridin-2-yl]-1,8-naphthyridin-4-amine]",≤ 1000
6,"CC(C)COCc1cc(Nc2ccc(S(=O)(=O)C(C)C)cc2)c2ccc(-c3ncccc3C(F)(F)F)nc2n1 [Compound 72, 2-(isobutoxymethyl)-N-[4-(isopropylsulfonyl)phenyl]-7-[3-(trifluoromethyl)pyridin-2-yl]-1,8-naphthyridin-4-amine]",≤ 1000
7,"CC(C)OCc1cc(Nc2ccc(C(F)(F)F)cc2)c2ccc(-c3ncccc3C(F)(F)F)nc2n1 [Compound 41, 2-(isopropoxymethyl)-N-[4-(trifluoromethyl)phenyl]-7-[3-(trifluoromethyl)pyridin-2-yl]-1,8-naphthyridin-4-amine]",≤ 1000
8,"CC(C)COCc1cc(Nc2ccc(C(F)(F)F)cn2)c2ccc(-c3ncccc3C(F)(F)F)nc2n1 [Compound 44, 2-(isobutoxymethyl)-7-[3-(trifluoromethyl)pyridin-2-yl]-N-[5-(trifluoromethyl)pyridin-2-yl]-1,8-naphthyridin-4-amine]",≤ 1000
9,"CC(C)COCc1cc(Nc2ccc(Br)cn2)c2ccc(-c3ncccc3C(F)(F)F)nc2n1 [Compound 61, N-(5-bromopyridin-2-yl)-2-(isobutoxymethyl)-7-[3-(trifluoromethyl)pyridin-2-yl]-1,8-naphthyridin-4-amine]",≤ 1000
10,"FC(F)(F)c1cnc(Nc2ccnc3nc(-c4ncccc4C(F)(F)F)ccc23)nc1 [Compound 132, 7-[3-(trifluoromethyl)pyridin-2-yl]-N-[5-(trifluoromethyl)pyrimidin-2-yl]-1,8-naphthyridin-4-amine]",≤ 1000
11,"CC(C)(O)COCc1cc(Nc2ccc(C(F)(F)F)cc2)c2ccc(-c3ncccc3C(F)(F)F)nc2n1 [Compound 82, 2-methyl-1-({4-{[4-(trifluoromethyl)phenyl]amino}-7-[3-(trifluoromethyl)pyridin-2-yl]-1,8-naphthyridin-2-yl}methoxy)propan-2-ol]",≤ 1000
12,"CCOc1cc(Nc2ccc(C(F)(F)F)cc2)c2ccc(-c3ncccc3C(F)(F)F)nc2n1 [Compound 36, 2-ethoxy-N-[4-(trifluoromethyl)phenyl]-7-[3-(trifluoromethyl)pyridin-2-yl]-1,8-naphthyridin-4-amine]",≤ 1000
13,"COCc1nc2nc(-c3ncccc3C(F)(F)F)ccc2c(Nc2ccc(C(F)(F)F)cc2)c1C(=O)O [Compound 6, 2-(methoxymethyl)-4-{[4-(trifluoromethyl)phenyl]amino}-7-[3-(trifluoromethyl)pyridin-2-yl]-1,8-naphthyridine-3-carboxylic acid]",≤ 1000
14,"FC(F)(F)c1cnc(Nc2ccnc3nc(-c4ncccc4C(F)(F)F)ccc23)cn1 [Compound 131, N-[5-(trifluoromethyl)pyrazin-2-yl]-7-[3-(trifluoromethyl)pyridin-2-yl]-1,8-naphthyridin-4-amine]",≤ 1000
15,"CC(=O)COCc1cc(Nc2ccc(C(F)(F)F)cc2)c2ccc(-c3ncccc3C(F)(F)F)nc2n1 [Compound 67, 1-({4-{[4-(trifluoromethyl)phenyl]amino}-7-[3-(trifluoromethyl)pyridin-2-yl]-1,8-naphthyridin-2-yl}methoxy)acetone]",≤ 1000
16,"CC1CCCN1Cc1cc(Nc2ccc(C(F)(F)F)cc2)c2ccc(-c3ncccc3C(F)(F)F)nc2n1 (stereo not drawn) [Compound 49, 2-[(2-methylpyrrolidin-1-yl)methyl]-N-[4-(trifluoromethyl)phenyl]-7-[3-(trifluoromethyl)pyridin-2-yl]-1,8-naphthyridin-4-amine]",≤ 1000
